Values joined by “and” are separate entries in the source; they are usually repeats but may differ in a detail not shown here. Equal values may be shown once.
Assay: xn = mol fraction of the nth substance listed

CCCCCOC(C)=O + Cc1cccc(O)c1
Conditions	viscosity [mPa·s]
298.15 K, 101 kPa, x2 = 0.5	1.167

Cc1ccccc1O + Cc1cccc(O)c1
viscosity [mPa·s]
Conditions	298.15 K	313.15 K	323.15 K
101 kPa, x1 = 0.1537	12.16	–	–
101 kPa, x1 = 0.3061	11.09	–	–
101 kPa, x1 = 0.3536	10.75	–	–
101 kPa, x1 = 0.3954	10.5	–	–
101 kPa, x1 = 0.506	9.939	–	–
101 kPa, x1 = 0.6371	9.208	–	–
101 kPa, x1 = 0.7608	8.582	–	–
101 kPa, x1 = 0.8803	8.086	–	–
101.3 kPa, x2 = 0.1	–	4.379	3.086
101.3 kPa, x2 = 0.2	–	4.539	3.145
101.3 kPa, x2 = 0.3	–	4.689	3.235
101.3 kPa, x2 = 0.4	–	4.861	3.32
101.3 kPa, x2 = 0.5	–	5.048	3.417
101.3 kPa, x2 = 0.6	–	5.248	3.543
101.3 kPa, x2 = 0.7	–	5.462	3.666
101.3 kPa, x2 = 0.8	–	5.693	3.805
101.3 kPa, x2 = 0.9	–	5.966	3.949

CC(C)(C)c1ccccc1 + Cc1ccccc1
303.15 K, 101.3 kPa
Conditions	viscosity [mPa·s]
x2 = 0.0457	0.974
x2 = 0.0865	0.949
x2 = 0.2449	0.8605
x2 = 0.3937	0.7829
x2 = 0.4453	0.7568
x2 = 0.5167	0.7206
x2 = 0.6672	0.6507
x2 = 0.7678	0.6057
x2 = 0.8687	0.5626
x2 = 0.957	0.5317
x2 = 0.9788	0.5253

CCCCCC + Cc1ccccc1
Conditions	viscosity
298.15 K, 101 kPa, x1 = 0.1	0.5021 mPa·s
298.15 K, 101 kPa, x1 = 0.121	0.504 mPa·s
298.15 K, 101 kPa, x1 = 0.2	0.4602 mPa·s
298.15 K, 101 kPa, x1 = 0.211	0.471 mPa·s
298.15 K, 101 kPa, x1 = 0.299	0.443 mPa·s
298.15 K, 101 kPa, x1 = 0.3	0.4254 mPa·s
298.15 K, 101 kPa, x1 = 0.4	0.3964 mPa·s
298.15 K, 101 kPa, x1 = 0.5	0.372 mPa·s
298.15 K, 101 kPa, x1 = 0.6	0.3513 mPa·s and 0.37 mPa·s
298.15 K, 101 kPa, x1 = 0.7	0.3336 mPa·s
298.15 K, 101 kPa, x1 = 0.712	0.349 mPa·s
298.15 K, 101 kPa, x1 = 0.799	0.335 mPa·s
298.15 K, 101 kPa, x1 = 0.8	0.3186 mPa·s
298.15 K, 101 kPa, x1 = 0.9	0.3059 mPa·s
298.15 K, 101 kPa, x2 = 0.1483	0.321 mPa·s
298.15 K, 101 kPa, x2 = 0.1826	0.333 mPa·s
298.15 K, 101 kPa, x2 = 0.2169	0.34 mPa·s
298.15 K, 101 kPa, x2 = 0.2524	0.348 mPa·s
298.15 K, 101 kPa, x2 = 0.2897	0.36 mPa·s
298.15 K, 101 kPa, x2 = 0.3286	0.366 mPa·s
298.15 K, 101 kPa, x2 = 0.3707	0.377 mPa·s
298.15 K, 101 kPa, x2 = 0.4105	0.3865 mPa·s
298.15 K, 101 kPa, x2 = 0.4556	0.3985 mPa·s
298.15 K, 101 kPa, x2 = 0.5039	0.4115 mPa·s
298.15 K, 101 kPa, x2 = 0.552	0.426 mPa·s
298.15 K, 101 kPa, x2 = 0.6002	0.44 mPa·s
298.15 K, 101 kPa, x2 = 0.6539	0.457 mPa·s
298.15 K, 101 kPa, x2 = 0.6976	0.471 mPa·s
298.15 K, 101 kPa, x2 = 0.7444	0.486 mPa·s
298.23 K, 100 kPa, x1 = 0.5	0.3708 mPa·s
298.28 K, 100 kPa, x1 = 0.25	0.4404 mPa·s
298.3 K, 100 kPa, x1 = 0.75	0.3227 mPa·s
303.15 K, 101.33 kPa, x1 = 0.0826	0.4983 mPa·s
303.15 K, 101.33 kPa, x1 = 0.1685	0.4637 mPa·s
303.15 K, 101.33 kPa, x1 = 0.2578	0.4362 mPa·s
303.15 K, 101.33 kPa, x1 = 0.3509	0.4117 mPa·s
303.15 K, 101.33 kPa, x1 = 0.4477	0.3884 mPa·s
303.15 K, 101.33 kPa, x1 = 0.5487	0.3671 mPa·s
303.15 K, 101.33 kPa, x1 = 0.6541	0.3492 mPa·s
303.15 K, 101.33 kPa, x1 = 0.7643	0.3299 mPa·s
303.15 K, 101.33 kPa, x1 = 0.8795	0.3136 mPa·s
308.15 K, 101 kPa, x1 = 0.121	0.448 mPa·s
308.15 K, 101 kPa, x1 = 0.211	0.42 mPa·s
308.15 K, 101 kPa, x1 = 0.299	0.395 mPa·s
308.15 K, 101 kPa, x1 = 0.448	0.361 mPa·s
308.15 K, 101 kPa, x1 = 0.6	0.332 mPa·s
308.15 K, 101 kPa, x1 = 0.712	0.314 mPa·s
308.15 K, 101 kPa, x1 = 0.799	0.302 mPa·s
313.15 K, 101.33 kPa, x1 = 0.0826	0.4542 mPa·s
313.15 K, 101.33 kPa, x1 = 0.1685	0.4265 mPa·s
313.15 K, 101.33 kPa, x1 = 0.2578	0.4033 mPa·s
313.15 K, 101.33 kPa, x1 = 0.3509	0.3782 mPa·s
313.15 K, 101.33 kPa, x1 = 0.4477	0.3592 mPa·s
313.15 K, 101.33 kPa, x1 = 0.5487	0.3375 mPa·s
313.15 K, 101.33 kPa, x1 = 0.6541	0.3202 mPa·s
313.15 K, 101.33 kPa, x1 = 0.7643	0.3043 mPa·s
313.15 K, 101.33 kPa, x1 = 0.8795	0.2896 mPa·s
323.15 K, 101 kPa, x1 = 0.121	0.382 mPa·s
323.15 K, 101 kPa, x1 = 0.211	0.36 mPa·s
323.15 K, 101 kPa, x1 = 0.299	0.341 mPa·s
323.15 K, 101 kPa, x1 = 0.448	0.314 mPa·s
323.15 K, 101 kPa, x1 = 0.6	0.292 mPa·s
323.15 K, 101 kPa, x1 = 0.712	0.278 mPa·s
323.15 K, 101 kPa, x1 = 0.799	0.255 mPa·s
323.15 K, 101.33 kPa, x1 = 0.0826	0.4006 mPa·s
323.15 K, 101.33 kPa, x1 = 0.1685	0.3747 mPa·s
323.15 K, 101.33 kPa, x1 = 0.2578	0.3545 mPa·s
323.15 K, 101.33 kPa, x1 = 0.3509	0.3354 mPa·s
323.15 K, 101.33 kPa, x1 = 0.4477	0.3184 mPa·s
323.15 K, 101.33 kPa, x1 = 0.5487	0.3022 mPa·s
323.15 K, 101.33 kPa, x1 = 0.6541	0.2867 mPa·s
323.15 K, 101.33 kPa, x1 = 0.7643	0.2736 mPa·s
323.15 K, 101.33 kPa, x1 = 0.8795	0.262 mPa·s

Cc1ccccc1O + Cc1ccccc1
308.15 K, 101 kPa
Conditions	viscosity [mPa·s]
x1 = 0.1491	0.6
x1 = 0.224	0.7051
x1 = 0.307	0.8217
x1 = 0.397	0.9904
x1 = 0.5325	1.332
x1 = 0.6095	1.604
x1 = 0.6968	2.034
x1 = 0.7755	2.544
x1 = 0.87	3.369

CCCCCOC(C)=O + Cc1ccccc1O
Conditions	viscosity [mPa·s]
298.15 K, 101 kPa, x2 = 0.5	1.165

CC1CCC(C)O1 (stereo not drawn) + ClC1CCCCC1
viscosity [mPa·s], 101.3 kPa
Conditions	x1 = 0.0973	x1 = 0.2014	x1 = 0.3026	x1 = 0.3986	x1 = 0.4986	x1 = 0.6031	x1 = 0.7002	x1 = 0.7977	x1 = 0.8986
298.15 K	1.36	1.179	1.033	0.9191	0.818	0.7279	0.6563	0.5937	0.5366
313.15 K	1.073	0.9412	0.8337	0.7486	0.6724	0.6054	0.551	0.499	0.452

CCCCCOC(C)=O + ClC(Cl)(Cl)Cl
303.15 K, 101.3 kPa
Conditions	viscosity [mPa·s]
x1 = 0.0945	0.8029
x1 = 0.1925	0.7788
x1 = 0.3042	0.7586
x1 = 0.4017	0.7482
x1 = 0.5021	0.7413
x1 = 0.6003	0.7378
x1 = 0.7016	0.7385
x1 = 0.808	0.7427
x1 = 0.9075	0.746
